Results reported in US20150245612A1, “ACTIVE INGREDIENT FOR CONTROLLING SPIDER MITES” (BAYER CROPSCIENCE AG, priority 2014, published 2015).

Tests used:
Type in all cases: in vivo
Panonychus citri [1] = assay: Panonychus citri test; outdoor spray treatment (METTCI), orange trees; conditions: METTCI on C. sinensis
Source text: Panonychus citri test; outdoor spray treatment (METTCI)
To produce an appropriate active ingredient formulation, 1 part by weight of active ingredient is mixed with the stated amounts of water to the desired concentration. Added to the spray liquor is 0.1% a.i. rapeseed oil methyl ester.
(§1) Three two-year-old orange trees (Citrus sinensis) affected by all stages of the citrus red mite (Panonychus citri) are sprayed with an active ingredient formulation of each desired concentration. Application is effected with a motorized backpack sprayer. In accordance with common practice, the water application rate is 1000 l/Ha. One spray application is conducted in each case.
(§2) After the desired time, the remaining mites per leaf are counted and calculated as the efficacy by the Abbott formula:
(§3) B=treated plots K=untreated control plots

Brevipalpus phoenicis = Brevipalpus phoenicis test; outdoor spray treatment (BRVPPH), orange trees; conditions: BRVPPH on C. sinensis
Source text: Brevipalpus phoenicis Test; Outdoor Spray Treatment (BRVPPH)
(§4) To produce an appropriate active ingredient formulation, 1 part by weight of active ingredient is mixed with the stated amounts of water to the desired concentration. Added to the spray liquor is 0.1% a.i. Crovol.
as §1, with “eight-year-old” for “two-year-old”, “false spider” for “citrus red”, “(Brevipalpus phoenicis)” for “(Panonychus citri)”
as §2, §3

Eutetranychus anneckei = Eutetranychus anneckei test; outdoor spray treatment (EUTEOR), orange trees; conditions: EUTEOR on C. sinensis
Source text: Eutetranychus anneckei Test; Outdoor Spray Treatment (EUTEOR)
as §4
as §1, with “oriental spider” for “citrus red”, “(Eutetranychus anneckei)” for “(Panonychus citri)”
as §2, §3

Panonychus citri [2] = assay: Panonychus citri test; outdoor spray treatment (METTCI), satsuma trees; conditions: METTCI on C. unshiu
Source text: (§5) Panonychus citri Test; Outdoor Spray Treatment (METTCI)
as §4
as §1, with “5-year-old satsuma” for “two-year-old orange”, “unshiu)” for “sinensis)”, “1850” for “1000”
as §2, §3

Phyllocoptruta oleivora = Phyllocoptruta oleivora test; outdoor spray treatment (PHYUOL), orange trees; conditions: PHYUOL on C. sinensis
Source text: Phyllocoptruta oleivora Test; Outdoor Spray Treatment (PHYUOL)
as §4
as §1, with “Three 15-year-old” for “Three two-year-old”, “citrus rust” for “citrus red”, “mite (Phyllocoptruta oleivora)” for “mite (Panonychus citri)”
as §2, §3

Panonychus citri [3] = assay: Panonychus citri test; outdoor spray treatment (METTCI), lemon trees; conditions: METTCI on C. limon
Source text: as §5, §4
as §1, with “lemon” for “orange”, “limon)” for “sinensis)”
as §2, §3

[4] = 100 g ai/ha/mch, + Crovol 0.1%, 7 Dat
[5] = 100 g ai/ha/mch, + Crovol 0.1%, 14 Dat

Compound: Cn1nc(C(F)(F)C(F)(F)F)c(C(F)(F)F)c1C(=O)Nc1ccc(Cl)c(C(=O)NCc2ccccc2)c1 [Compound (I)]
- Efficacy (% Abbott) (Panonychus citri [1]; 50 g ai/ha/mch, + RME 0.1%, 1 Dat): 85 % Abbott
- Efficacy (% Abbott) (Panonychus citri [1]; 50 g ai/ha/mch, + RME 0.1%, 5 Dat): 99 % Abbott
- Efficacy (% Abbott) (Panonychus citri [1]; 100 g ai/ha/mch, + RME 0.1%, 1 Dat): 99 % Abbott
- Efficacy (% Abbott) (Panonychus citri [1]; 100 g ai/ha/mch, + RME 0.1%, 5 Dat): 100 % Abbott
- Efficacy (% Abbott) (Brevipalpus phoenicis; 100 g ai/ha/mch, + Crovol 0.1%, 3 Dat): 88.4 % Abbott
- Efficacy (% Abbott) (Brevipalpus phoenicis; [4]): 95 % Abbott
- Efficacy (% Abbott) (Brevipalpus phoenicis; [5]): 100 % Abbott
- Efficacy (% Abbott) (Brevipalpus phoenicis; 100 g ai/ha/mch, + Crovol 0.1%, 21 Dat): 100 % Abbott
- Efficacy (% Abbott) (Brevipalpus phoenicis; 100 g ai/ha/mch, + Crovol 0.1%, 49 Dat): 92.7 % Abbott
- Efficacy (% Abbott) (Brevipalpus phoenicis; 100 g ai/ha/mch, + Crovol 0.1%, 60 Dat): 100 % Abbott
- Efficacy (% Abbott) (Eutetranychus anneckei; 100 g ai/ha/mch, + Crovol 0.1%, 8 Dat): 99 % Abbott
- Efficacy (% Abbott) (Eutetranychus anneckei; 100 g ai/ha/mch, + Crovol 0.1%, 16 Dat): 99 % Abbott
- Efficacy (% Abbott) (Eutetranychus anneckei; 100 g ai/ha/mch, + Crovol 0.1%, 22 Dat): 100 % Abbott
- Efficacy (% Abbott) (Eutetranychus anneckei; 100 g ai/ha/mch, + Crovol 0.1%, 30 Dat): 98 % Abbott
- Efficacy (% Abbott) (Eutetranychus anneckei; 100 g ai/ha/mch, + Crovol 0.1%, 36 Dat): 93 % Abbott
- Efficacy (% Abbott) (Panonychus citri [2]; 100 g ai/ha/mch, + Crovol 0.1%, 4 Dat): 100 % Abbott
- Efficacy (% Abbott) (Panonychus citri [2]; [4]): 98.1 % Abbott
- Efficacy (% Abbott) (Panonychus citri [2]; [5]): 97.6 % Abbott
- Efficacy (% Abbott) (Phyllocoptruta oleivora; 75 g ai/ha/mch, + Crovol 0.1%, 5 Dat): 36 % Abbott
- Efficacy (% Abbott) (Phyllocoptruta oleivora; 75 g ai/ha/mch, + Crovol 0.1%, 13 Dat): 45 % Abbott
- Efficacy (% Abbott) (Phyllocoptruta oleivora; 75 g ai/ha/mch, + Crovol 0.1%, 19 Dat): 64 % Abbott
- Efficacy (% Abbott) (Phyllocoptruta oleivora; 75 g ai/ha/mch, + Crovol 0.1%, 27 Dat): 72 % Abbott
- Efficacy (% Abbott) (Phyllocoptruta oleivora; 100 g ai/ha/mch, + Crovol 0.1%, 5 Dat): 77 % Abbott
- Efficacy (% Abbott) (Phyllocoptruta oleivora; 100 g ai/ha/mch, + Crovol 0.1%, 13 Dat): 84 % Abbott
- Efficacy (% Abbott) (Phyllocoptruta oleivora; 100 g ai/ha/mch, + Crovol 0.1%, 19 Dat): 94 % Abbott
- Efficacy (% Abbott) (Phyllocoptruta oleivora; 100 g ai/ha/mch, + Crovol 0.1%, 27 Dat): 96 % Abbott
- Efficacy (% Abbott) (Panonychus citri [3]; 100 g ai/ha/mch, + Crovol 0.1%, 6 Dat): 90 % Abbott
- Efficacy (% Abbott) (Panonychus citri [3]; 100 g ai/ha/mch, + Crovol 0.1%, 23 Dat): 99 % Abbott

Compound: Cc1nn(C)c(/C(OC(=O)C(C)(C)C)=C(\C#N)c2ccc(C(C)(C)C)cc2)c1C [Cyenopyrafen, reference compound]
- Efficacy (% Abbott) (Brevipalpus phoenicis; 150 g ai/ha/mch, 3 Dat): 74.4 % Abbott
- Efficacy (% Abbott) (Brevipalpus phoenicis; 150 g ai/ha/mch, 7 Dat): 92.5 % Abbott
- Efficacy (% Abbott) (Brevipalpus phoenicis; 150 g ai/ha/mch, 14 Dat): 94.7 % Abbott
- Efficacy (% Abbott) (Brevipalpus phoenicis; 150 g ai/ha/mch, 21 Dat): 100 % Abbott
- Efficacy (% Abbott) (Brevipalpus phoenicis; 150 g ai/ha/mch, 49 Dat): 78 % Abbott
- Efficacy (% Abbott) (Brevipalpus phoenicis; 150 g ai/ha/mch, 60 Dat): 97.6 % Abbott
- Efficacy (% Abbott) (Eutetranychus anneckei; 150 g ai/ha/mch, 8 Dat): 100 % Abbott
- Efficacy (% Abbott) (Eutetranychus anneckei; 150 g ai/ha/mch, 16 Dat): 96 % Abbott
- Efficacy (% Abbott) (Eutetranychus anneckei; 150 g ai/ha/mch, 22 Dat): 100 % Abbott
- Efficacy (% Abbott) (Eutetranychus anneckei; 150 g ai/ha/mch, 30 Dat): 83 % Abbott
- Efficacy (% Abbott) (Eutetranychus anneckei; 150 g ai/ha/mch, 36 Dat): 63 % Abbott
- Efficacy (% Abbott) (Phyllocoptruta oleivora; 150 g ai/ha/mch, 5 Dat): 32 % Abbott
- Efficacy (% Abbott) (Phyllocoptruta oleivora; 150 g ai/ha/mch, 13 Dat): 29 % Abbott
- Efficacy (% Abbott) (Phyllocoptruta oleivora; 150 g ai/ha/mch, 19 Dat): 31 % Abbott
- Efficacy (% Abbott) (Phyllocoptruta oleivora; 150 g ai/ha/mch, 27 Dat): 32 % Abbott

Compound: CCC(C)(C)C(=O)OC1=C(c2ccc(Cl)cc2Cl)C(=O)OC12CCCCC2 [Spirodiclofen, reference compound]
- Efficacy (% Abbott) (Panonychus citri [1]; 48 g ai/ha/mch, 1 Dat): 29 % Abbott
- Efficacy (% Abbott) (Panonychus citri [1]; 48 g ai/ha/mch, 5 Dat): 90 % Abbott
- Efficacy (% Abbott) (Panonychus citri [2]; 144 g ai/ha/mch, 4 Dat): 70.7 % Abbott
- Efficacy (% Abbott) (Panonychus citri [2]; 144 g ai/ha/mch, 7 Dat): 85.2 % Abbott
- Efficacy (% Abbott) (Panonychus citri [2]; 144 g ai/ha/mch, 14 Dat): 78 % Abbott
- Efficacy (% Abbott) (Panonychus citri [3]; 48 g ai/ha/mch, 6 Dat): 58 % Abbott
- Efficacy (% Abbott) (Panonychus citri [3]; 48 g ai/ha/mch, 23 Dat): 100 % Abbott
